The source of these data is ChEMBL document CHEMBL5376006, “Discovery of a Hidden Pocket beneath the NES Groove by Novel Noncovalent CRM1 Inhibitors” (J Med Chem, 2023).

Test [1] concerns the target T1, Exportin-1 (Homo sapiens, UniProt O14980). Briefly: Inhibition of CRM1 (unknown origin) binding to GST-tagged NES PKI assessed as CRM1/NES band ratio incubated for 1.5 hrs by Coomassie brilliant blue staining based pull-down assay (reference value: 1.00). The arrangement: concentration or dose not given beside the values.
Test [2] deals with T1, Exportin-1. As to the kind of experiment: Inhibition of CRM1 (unknown origin) binding to GST-tagged NES PKI at 100 uM incubated for 1.5 hrs by Coomassie brilliant blue staining based pull-down assay.
Test [3] has as its target T1, Exportin-1. Briefly: Inhibition of CRM1 (unknown origin) binding to GST-tagged NES PKI assessed as CRM1/NES band ratio at 20 uM incubated for 1.5 hrs by Coomassie brilliant blue staining based pull-down assay.
For test [4], the system named is HeLa. Briefly: Antiproliferative activity against human HeLa cells assessed as inhibition of cell growth at 20 uM incubated for 72 hrs by SRB assay. The test is classed as functional, cell-based. Background: The SRB assay estimates cell density from bound dye.
The target in test [5] is T1, Exportin-1. Briefly: Inhibition of CRM1 cargo nuclear export in human MCF7 cells at 50 uM incubated for 4 hrs by confocal microscopic analysis. The format is cell-based.
In test [6] the target is T1, Exportin-1. Briefly: Inhibition of GFP-fused CRM1 cargo nuclear export in human HeLa cells at 200 uM incubated for 4 hrs by confocal microscopic analysis. The test is classed as cell-based.

Activity calls are given as the source filed them. The calls are words filed in the database; no cut-off is given here.

T1 sequence (O14980 whole entry): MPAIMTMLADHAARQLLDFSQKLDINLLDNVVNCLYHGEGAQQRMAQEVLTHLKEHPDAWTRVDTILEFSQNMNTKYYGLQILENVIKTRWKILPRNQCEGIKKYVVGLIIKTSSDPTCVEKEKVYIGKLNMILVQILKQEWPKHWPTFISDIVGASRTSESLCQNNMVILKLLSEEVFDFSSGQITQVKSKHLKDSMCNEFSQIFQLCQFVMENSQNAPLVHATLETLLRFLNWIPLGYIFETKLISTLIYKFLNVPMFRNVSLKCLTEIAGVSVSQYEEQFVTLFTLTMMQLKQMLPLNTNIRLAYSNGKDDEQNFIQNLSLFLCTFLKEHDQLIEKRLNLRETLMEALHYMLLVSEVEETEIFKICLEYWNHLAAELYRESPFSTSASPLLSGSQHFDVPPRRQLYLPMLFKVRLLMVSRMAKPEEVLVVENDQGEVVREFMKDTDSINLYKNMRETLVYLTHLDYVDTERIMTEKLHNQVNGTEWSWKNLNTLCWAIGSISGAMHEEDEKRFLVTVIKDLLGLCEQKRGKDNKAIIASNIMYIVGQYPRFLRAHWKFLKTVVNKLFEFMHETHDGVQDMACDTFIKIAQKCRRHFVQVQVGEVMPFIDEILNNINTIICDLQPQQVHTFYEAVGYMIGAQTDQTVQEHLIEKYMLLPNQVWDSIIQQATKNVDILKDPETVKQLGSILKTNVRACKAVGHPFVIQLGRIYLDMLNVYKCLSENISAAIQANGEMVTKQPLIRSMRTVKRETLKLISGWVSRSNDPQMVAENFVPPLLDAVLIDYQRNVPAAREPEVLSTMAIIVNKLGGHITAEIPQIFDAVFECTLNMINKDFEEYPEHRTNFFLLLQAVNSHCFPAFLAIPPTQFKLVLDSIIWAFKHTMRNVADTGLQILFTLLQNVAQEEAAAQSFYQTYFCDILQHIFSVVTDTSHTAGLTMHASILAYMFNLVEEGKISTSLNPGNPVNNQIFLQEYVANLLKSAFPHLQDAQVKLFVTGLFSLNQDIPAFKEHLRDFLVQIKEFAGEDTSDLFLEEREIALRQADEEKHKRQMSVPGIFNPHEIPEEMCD

Turning to `O=C(O)c1ccc(N2CCN(c3ccccc3F)CC2)c(NC(=O)c2ccc(Br)cc2)c1`, the Ratio in test [1] amounted to 0.68.
Regarding `COC(=O)c1ccc(N2CCN(c3ccccc3C(F)(F)F)CC2)c(NC(=O)c2ccc(Br)cc2)c1`, the inhibition entry in test [2] was “inactive”.
In the case of `Cc1ccc(C)c(S(=O)(=O)Nc2cc(C(=O)O)ccc2N2CCN(c3ccccc3F)CC2)c1`, the Ratio in test [1] is 0.95.
Consider `Cc1ccc(Cl)cc1N1CCN(c2ccc(C(=O)O)cc2NC(=O)c2ccc(C(F)(F)F)cc2)CC1`, for which the Ratio in test [3] is 0.35. In test [4], the result was Active.
As for `O=C(O)c1ccc(N2CCCN(c3ccc(Cl)nn3)CC2)c(NC(=O)c2ccccc2)c1`, the Ratio in test [1] came to 0.8.
Consider `O=C(O)c1ccc(N2CCN(c3ccc(F)cc3)CC2)c(NC(=O)c2ccc(F)cc2)c1`, for which the Ratio in test [1] worked out at 1.15.
The same measure, in the same setting: with `Cc1cccc(C(=O)Nc2cc(C(=O)O)ccc2N2CCC(N3CCCCC3)CC2)c1` the figure was 0.81.
As for `COc1ccc(Cl)cc1N1CCN(c2ccc(C(=O)O)cc2NC(=O)c2ccc(Cl)cc2)CC1`, the Ratio in test [3] stood at 0.85. In addition, the result in test [4] was Active.
As for `O=C(O)c1ccc(N2CCN(c3ccc(F)cc3)CC2)c(NS(=O)(=O)c2cc(F)ccc2F)c1`, the Ratio in test [1] worked out at 0.83.
The same measure, in the same setting: with `O=C(O)c1ccc(N2CCN(c3ccccn3)CC2)c(NC(=O)c2cccc(Cl)c2)c1` the figure was 0.72; with `O=C(O)c1ccc(N2CCN(C3CCCCC3)CC2)c(NC(=O)c2ccc(F)cc2)c1`, 0.88; with `COc1ccccc1N1CCN(c2ccc(C(=O)O)cc2NC(=O)c2ccc(Cl)cc2)CC1`, 0.88.
The same measure, in the same setting: as for `Cc1cccc(N2CCN(c3ccc(C(=O)O)cc3NC(=O)c3ccccc3)CC2C)c1` (centres undefined), the figure is 0.81.
Consider `COC(=O)c1ccc(N2CCN(c3cc(C(F)(F)F)ccc3C(F)(F)F)CC2)c(NC(=O)c2ccc(Br)cc2)c1`, for which the inhibition result in test [2] and in test [5] was “inactive” throughout.
Consider `Cc1cccc(S(=O)(=O)Nc2cc(C(=O)O)ccc2N2CCN(c3ccc(Cl)cc3)CC2)c1`, for which, in test [1], the Ratio was determined as 1.07.
Still for that read-out and setting: with `Cc1ccc(C)c(N2CCN(c3ccc(C(=O)O)cc3NC(=O)c3ccccc3C)CC2)c1` the figure was 1.09.
`O=C(O)c1ccc(N2CCN(c3cc(C(F)(F)F)ccc3Cl)CC2)c(NC(=O)c2ccc(Br)cc2)c1`: the Ratio in test [3] was determined as 0.15. Further, in test [4], the outcome was Active.
Regarding `O=C(O)c1ccc(N2CCN(c3ccc(F)cc3)CC2)c(NS(=O)(=O)c2cccc(F)c2)c1`, the Ratio in test [1] was determined as 0.85.
As for `COC(=O)c1ccc(N2CCN(c3cc(C(F)(F)F)ccc3Cl)CC2)c(NC(=O)c2ccc(Br)cc2)c1`, the inhibition entry in test [2] is “inactive”.
On to `Cc1ccc(Cl)cc1N1CCN(c2ccc(C(=O)O)cc2NC(=O)c2ccc(F)cc2)CC1`, for which the Ratio in test [1] was 0.18. The inhibition result in test [6] is “inactive”.
Consider `O=C(O)c1ccc(N2CCN(c3ccccc3C(F)(F)F)CC2)c(NC(=O)c2ccc(Br)cc2)c1`, for which the Ratio in test [3] came out at 0.28. Also, the result in test [4] was Active.
Consider `COC(=O)c1ccc(N2CCN(c3cc(Cl)ccc3C)CC2)c(NC(=O)c2ccc(Br)cc2)c1`, for which the inhibition result in test [2] is “inactive”.
Take `Cc1ccc(C)c(S(=O)(=O)Nc2cc(C(=O)O)ccc2N2CCN(c3ccc(F)cc3)CC2)c1`: the Ratio in test [1] is 0.96.
Consider `O=C(O)c1ccc(N2CCN(c3cccc(F)c3)CC2)c(NC(=O)c2ccc(Cl)cc2)c1`, for which the Ratio in test [1] is 0.89.
In the case of `O=C(O)c1ccc(N2CCN(c3cccc(Cl)c3)CC2)c(NS(=O)(=O)c2cccc(F)c2)c1`, the Ratio in test [1] turned out to be 0.43. In addition, the inhibition entry in test [6] was “inactive”.
On to `O=C(O)c1ccc(N2CCC(N3CCCCC3)CC2)c(NC(=O)c2ccc(F)cc2)c1`, for which the Ratio in test [1] was 0.83.
`COC(=O)c1ccc(N2CCN(c3cc(C)ccc3C)CC2)c(NC(=O)c2ccc(Cl)cc2)c1`: the inhibition entry in test [2] was “inactive”.
The same measure, in the same setting: with `COC(=O)c1ccc(N2CCN(c3cccc(C(F)(F)F)c3)CC2)c(NC(=O)c2ccc(Br)cc2)c1` the entry was “inactive”.
On to `O=C(O)c1ccc(N2CCN(CC(=O)N3CCCC3)CC2)c(NC(=O)c2ccccc2)c1`, for which the Ratio in test [1] is 1.08.
Same read-out and setting: as for `O=C(O)c1ccc(N2CCN(c3ccc(F)cc3)CC2)c(NC(=O)c2ccc(Br)cc2)c1`, the figure is 1.24.
In the case of `COC(=O)c1ccc(N2CCN(c3cc(C(F)(F)F)ccc3C(F)(F)F)CC2)c(NC(=O)c2ccc(Cl)cc2)c1`, the inhibition entry in test [2] and in test [5] was “inactive” in each case.
Turning to `Cc1ccc(C)c(N2CCN(c3ccc(C(=O)O)cc3NC(=O)c3ccc(F)cc3)CC2)c1`, the Ratio in test [1] was 0.82.
Consider `COC(=O)c1ccc(N2CCN(c3cc(Cl)ccc3C)CC2)c(NC(=O)c2ccc(Cl)cc2)c1`, for which the inhibition result in test [2] is “inactive”.
The same measure, in the same setting: as for `COC(=O)c1ccc(N2CCN(c3cc(Cl)ccc3C)CC2)c(NC(=O)c2ccc(C(F)(F)F)cc2)c1`, the entry is “inactive”.
Consider `Cc1cccc(S(=O)(=O)Nc2cc(C(=O)O)ccc2N2CCN(c3ccc(F)cc3)CC2)c1`, for which the Ratio in test [1] amounted to 0.84.
`Cc1ccc(Cl)cc1N1CCN(c2ccc(C(=O)O)cc2NC(=O)c2ccc(Br)cc2)CC1`: the Ratio in test [3] was 0.24. Further, in test [4], the outcome was Active.
Taken in the same sequence, the figures for `Cc1ccc(Cl)cc1N1CCN(c2ccc(C(=O)O)cc2NC(=O)c2ccc(Cl)cc2)CC1` were 0.26 and “Active”.
For the compound `Cc1cccc(N2CCN(c3ccc(C(=O)O)cc3NC(=O)c3ccc(F)cc3)CC2C)c1` (centres undefined), the Ratio in test [1] came to 0.87.
Same read-out and setting: as for `Cc1cccc(C(=O)Nc2cc(C(=O)O)ccc2N2CCN(c3ccccc3F)CC2)c1`, the figure is 1.13.
`O=C(O)c1ccc(N2CCN(c3cccc(C(F)(F)F)c3)CC2)c(NC(=O)c2ccc(Br)cc2)c1`: the Ratio in test [3] was 0.29. The result in test [4] was Active.
`Cc1cccc(C(=O)Nc2cc(C(=O)O)ccc2N2CCN(c3cccc(C)c3)C(C)C2)c1` (centres undefined): in test [1], the Ratio came to 0.76.
On to `COC(=O)c1ccc(N2CCN(c3cc(Cl)ccc3OC)CC2)c(NC(=O)c2ccc(Cl)cc2)c1`, for which, in test [2], the inhibition entry is “inactive”.
As to `Cc1ccc(C(F)(F)F)cc1N1CCN(c2ccc(C(=O)O)cc2NC(=O)c2ccc(Cl)cc2)CC1`, the Ratio in test [3] is 0.2. Also, in test [4], the result was Active.
Consider `O=C(O)c1ccc(N2CCN(c3ccccn3)CC2)c(NC(=O)c2ccc(Cl)cc2)c1`, for which, in test [1], the Ratio was 0.85.
The same measure, in the same setting: as for `O=C(O)c1ccc(N2CCN(c3ccc(F)cc3)CC2)c(NS(=O)(=O)c2ccc(F)c(F)c2)c1`, the figure is 0.88.
Consider `O=C(O)c1ccc(N2CCN(c3cccc(C(F)(F)F)c3)CC2)c(NC(=O)c2ccc(F)cc2)c1`, for which, in test [1], the Ratio came to 0.28. The inhibition entry in test [2] is “Active”. Further, the inhibition entry in test [6] was “inactive”.
For the compound `COC(=O)c1ccc(N2CCN(c3cc(Cl)ccc3Cl)CC2)c(NC(=O)c2ccc(Cl)cc2)c1`, the inhibition entry in test [2] is “inactive”.
In the case of `Cc1cccc(C(=O)Nc2cc(C(=O)O)ccc2N2CCC(CCN3CCCCC3)CC2)c1`, the Ratio in test [1] turned out to be 0.81.
As to `O=C(O)c1ccc(N2CCC(N3CCCCC3)CC2)c(NC(=O)c2cccc(Cl)c2)c1`, the Ratio in test [1] turned out to be 0.91.
As to `O=C(O)c1ccc(N2CCN(Cc3cccc(F)c3)CC2)c(NC(=O)c2ccccc2)c1`, in test [1], the Ratio was 0.72.
As to `O=C(O)c1ccc(N2CCN(c3cc(Cl)ccc3Cl)CC2)c(NC(=O)c2ccc(Cl)cc2)c1`, in test [3], the Ratio was determined as 0.32. Also, the result in test [4] was Active.
As for `COC(=O)c1ccc(N2CCN(c3cc(C(F)(F)F)ccc3C)CC2)c(NC(=O)c2ccc(Cl)cc2)c1`, the inhibition result in test [2] was “inactive”.
For the compound `COC(=O)c1ccc(N2CCN(c3cc(C(F)(F)F)cc(C(F)(F)F)c3)CC2)c(NC(=O)c2ccc(Br)cc2)c1`, the inhibition result in test [2] and in test [5] was “inactive” throughout.
